Measurements: patent US20220047587A1, “SYNERGISTIC COMPOSITIONS COMPRISING R-2-(SUBSTITUTED-SULFONYL)-HEXAHYDRO-PYRROLO[1,2-A]PYRAZIN-6(2H)-ONES AND S-2-(SUBSTITUTED-SULFONYL)-HEXAHYDRO-PYRROLO[1,2-A]PYRAZIN-6(2H)-ONES IN A NON-RACEMIC RATIO” (Metys Pharmaceuticals AG, priority 2018, published 2022)

Assays:
paclitaxel-treated rats [1] = assay: Paclitaxel-induced mechanical allodynia (von Frey test) after i.v. administration; type: in vivo, rat; conditions: single acute administration 1 mg/kg i.v., adult male Sprague Dawley rats, 0-75 min after injection (FIG. 1)
Excerpt: Each animal was placed in a chamber with a mesh metal floor covered by a plastic dome that enabled the animal to walk freely, but not to jump. The mechanical stimulus was then delivered in the mid-plantar skin of left hind paw using an electronic von Frey apparatus (37400 Dynamic Plantar Aesthesiometer, Ugo Basile, Comerio, Varese, Italy). The cut-off was set at 50 g, while the increasing force rate (ramp duration) was set at 20 s. In the single administration protocol, pain threshold measurements have been performed before (pre-dose) and at regular intervals after treatment. In the repeated treatment protocol, the pre-test value was measured 13 h after the last administration; afterward the animals received a new administration and measures were performed at the described times. Results are expressed in […] and represent the mean±S.E.M. of mechanical thresholds.
(§1) Paclitaxel (2 mg/kg i.p.) was administered on days 1, 3, 5 and 8. Test compounds were dissolved in saline and administered intravenously at the dose of 1 mg/kg to adult male Sprague-Dawley rats (Charles River, Italy, 220-250 g weight). Data were obtained at 0-75 minutes after injection and are expressed as the mean±s.e.m. of six animals. *P<0.05 and **<0.01 vs vehicle+paclitaxel treated rats; °P<0.05 and ^°°P<0.01 vs. NT24336 (R) treated group. […] *P<0.05 and **<0.01 vss vehicle+paclitaxel treated rats.

paclitaxel-treated rats [2] = assay: Paclitaxel-induced peripheral sensory neuropathy model, hyperalgesia (paw pressure) after i.v. administration; type: in vivo, rat
Excerpt: Results are expressed as the minimum dose (via the indicated route) at which a statistically-significant difference is observed when compared to time-matched injured rats receiving a vehicle administration by the same route. An analysis of variance, ANOVA, followed by Fisher's protected least significant difference procedure for post hoc comparison, was used to verify significance between two means of hyperalgesic behavioral results from the Randall & Selitto apparatus paw pressure test (“anti-hyperalgesia”) or from the Von Frey test (“mechanical allodynia”) or from the Cold Plate test (“cold allodynia”). P values 0.05 were considered significant. This definition applies to any doses specified herein as inhibiting “in a statistically significant manner”.
Paw mechanical sensitivity was determined using a Randall & Selitto apparatus (Randall and Selitto, 1957) exerting a force that increases at constant rate (32 g/s). The stimulus causing paw withdrawal was evaluated before and at different times after treatment. Results represent the mean of mechanical thresholds for paw withdrawal expressed as grams. To avoid possible damage to the rat paw the maximum applied force was set at 240 g. In the single administration protocol, paw pressure tests were performed before (pre-dose) and at regular intervals after treatment.
as §1

| SMILES | Effect on paclitaxel-induced mechanical allodynia (von Frey test) (paclitaxel-treated rats [1]; 1 mg/kg) | Effect on paclitaxel-induced mechanical allodynia (von Frey test) (paclitaxel-treated rats [1]) | Lowest dose at which paclitaxel-induced hyperalgesia is inhibited in a statistically significant manner (P < 0.05) (paclitaxel-treated rats [2]; 15 min after administration) | Lowest dose at which paclitaxel-induced hyperalgesia is inhibited in a statistically significant manner (P < 0.05) (paclitaxel-treated rats [2]; 30 min after administration) | Lowest dose at which paclitaxel-induced hyperalgesia is inhibited in a statistically significant manner (P < 0.05) (paclitaxel-treated rats [2]; 45 min after administration) |
| --- | --- | --- | --- | --- | --- |
| O=C1CCC2CN(S(=O)(=O)c3ccccc3F)CCN12 (racemic) [R:S mixture 1:1, 2-(2-fluorobenzenesulfonyl)hexahydropyrrolo[1,2-a]pyrazin-6-one] | marginally effective | – | – | – | – |
| O=C1CCC2CN(S(=O)(=O)c3ccccc3F)CCN12 (racemic) [R:S mixture 3:1, 2-(2-fluorobenzenesulfonyl)hexahydropyrrolo[1,2-a]pyrazin-6-one] | the most active one | – | – | – | – |
| O=C1CCC2CN(S(=O)(=O)c3ccccc3F)CCN12 (stereo not drawn) [NT-24781, 2-(2-fluorobenzenesulfonyl)hexahydropyrrolo[1,2-a]pyrazin-6-one] | – | almost inactive | >3 mg/kg | >3 mg/kg | >3 mg/kg |
